# Results as given in patent US20230240297A1, “SELECTIVE HERBICIDES BASED ON SUBSTITUTED ISOXAZOLIN CARBOXAMIDES AND CYPROSULFAMIDE” (Bayer Aktiengesellschaft, priority 2020, published 2023).
# Legend:
# Assay type in all cases: in vivo, maize
# ZEAMA Sileno [1] = test: Treatment 1 day before (safener applied one day before herbicide, post-emergence); set-up: key to Reduction [Difference]: percentage points of visually scored % crop damage vs untreated control; conditions: for Reduction [%] / Reduction [Difference]: cyprosulfamide 100 g a.i./ha 1 day before; for HER effect + SAF: cyprosulfamide 100 g a.i./ha applied 1 day before; for HER effect + SAF / HER effect: Final assessment; for HER effect: no safener
# Source text: Seeds of crops (spring wheat, TRZAS; spring barley, HORVS; maize, ZEAMA) were placed in sandy loam soil in pots of a diameter of 7-8 cm, covered with soil, and cultivated in a greenhouse under good growth conditions until plants were at the 1-3 leaf stage (BBCH 11-13). For split safener and herbicide treatment, first the safener was applied followed by the herbicide treatment on the following day. The safener and herbicides were formulated as WP and sprayed onto the green parts of the plants as an aqueous suspension at an equivalent water application rate of 300 1/ha, with addition of wetting agent and adjuvants (e.g. Mero, 1.5 1/ha; ammonium sulphate, 2 kg/ha). An equivalent set of plants was treated with the herbicides but without the prior safener treatment.
# After application, the test plants were kept in the greenhouse under good growth conditions. 10 and 21 days after treatment (DAT) with the herbicide, % crop damage observed on the treated plants was scored visually in comparison to control plants that had not received any safener or herbicide treatment.
# ZEAMA Sileno [2] = test: Tank-mix; post-emergence, crop damage with and without safener; conditions: for HER effect + SAF / HER effect: Final assessment; for HER effect: no safener
# In short: (§1)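 Crops in sandy loam in the greenhouse were sprayed at the 1–3-leaf stage, 2–3 weeks after sowing, with herbicide/safener combinations or the single actives at various dosages in 300 l/ha water. Injury was scored visually 1–3 weeks after treatment as % versus untreated plants (0% none, 100% complete kill).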
# ZEAMA Sileno [3] = test: Seed treatment with safener; post-emergence herbicide application; set-up: Reduction [Difference]: scale not given here; conditions: Final assessment; for Reduction [%] / Reduction [Difference]: Cyprosulfamide 0.5 g a.i./kg seed; for Reduction [Difference]: damage without safener - damage with safener; for HER effect + SAF (crop damage with safener): Cyprosulfamide seed treatment 0.5 g a.i./kg seed; for HER effect (crop damage, herbicide without safener): no safener
# In short: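 Maize seeds slurry-coated with WP safener (g a.i./kg seed) or left untreated, sown in sandy loam and grown in greenhouse. WP herbicide sprayed post-emergence at BBCH11-13 in 300 l/ha water with wetting agent and adjuvants (e.g. Mero 1.5 l/ha, ammonium sulphate 2 kg/ha); means of at least 2 replicates.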
# ZEAMA Abraxas = test: Tank-mix; post-emergence, crop damage with and without safener; conditions: for HER effect + SAF / HER effect: Final assessment; for HER effect: no safener
# In short: as §1
# [4] = HER 2 g a.i./ha, cyprosulfamide 50 g a.i./ha
# [5] = HER 8 g a.i./ha, cyprosulfamide 50 g a.i./ha
# [6] = HER dose 2 g a.i./ha + cyprosulfamide 50 g a.i./ha tank-mix
# [7] = HER dose 8 g a.i./ha + cyprosulfamide 50 g a.i./ha tank-mix
# [8] = HER 32 g a.i./ha, cyprosulfamide 100 g a.i./ha
# [9] = HER dose 32 g a.i./ha + cyprosulfamide 100 g a.i./ha tank-mix
SMILES,Reduction [%] (ZEAMA Sileno [1]; HER 8 g a.i./ha),Reduction [Difference] (ZEAMA Sileno [1]; HER 8 g a.i./ha),Reduction [%] (ZEAMA Sileno [1]; HER 32 g a.i./ha),Reduction [Difference] (ZEAMA Sileno [1]; HER 32 g a.i./ha),Reduction [%] (ZEAMA Sileno [3]; HER dose 8 g a.i./ha),Reduction [Difference] (ZEAMA Sileno [3]; HER dose 8 g a.i./ha),HER effect + SAF (crop damage with safener) (ZEAMA Sileno [3]; HER dose 8 g a.i./ha) [%],"HER effect (crop damage, herbicide without safener) (ZEAMA Sileno [3]; HER dose 8 g a.i./ha) [%]",Reduction [%] (ZEAMA Sileno [3]; HER dose 32 g a.i./ha),Reduction [Difference] (ZEAMA Sileno [3]; HER dose 32 g a.i./ha),HER effect + SAF (crop damage with safener) (ZEAMA Sileno [3]; HER dose 32 g a.i./ha) [%],"HER effect (crop damage, herbicide without safener) (ZEAMA Sileno [3]; HER dose 32 g a.i./ha) [%]",Reduction [%] (ZEAMA Abraxas; [5]),Reduction [Difference] (ZEAMA Abraxas; [5]),Reduction [%] (ZEAMA Abraxas; [8]),Reduction [Difference] (ZEAMA Abraxas; [8]),HER effect + SAF (ZEAMA Abraxas; [7]) [%],HER effect (ZEAMA Abraxas; HER dose 8 g a.i./ha) [%],HER effect + SAF (ZEAMA Abraxas; [9]) [%],HER effect (ZEAMA Abraxas; HER dose 32 g a.i./ha) [%],other results
CCOC(=O)C1C=CC(NC(=O)C2(CF)CC(c3cc(F)cc(F)c3)=NO2)C1 (stereo not drawn) [Example 1.17],63,60,59,50,95,90,5,95,82,70,15,85,–,–,–,–,–,–,–,–,"Reduction [%] (ZEAMA Sileno [1]; HER 2 g a.i./ha): 56%; Reduction [Difference] (ZEAMA Sileno [1]; HER 2 g a.i./ha): 25; HER effect + SAF (ZEAMA Sileno [1]; HER dose 2 g a.i./ha): 20%; HER effect (ZEAMA Sileno [1]; HER dose 2 g a.i./ha): 45%; HER effect + SAF (ZEAMA Sileno [1]; HER dose 8 g a.i./ha): 35%; HER effect (ZEAMA Sileno [1]; HER dose 8 g a.i./ha): 95%; HER effect + SAF (ZEAMA Sileno [1]; HER dose 32 g a.i./ha): 35%; HER effect (ZEAMA Sileno [1]; HER dose 32 g a.i./ha): 85%; Reduction [%] (ZEAMA Sileno [2]; [4]): 67%; Reduction [Difference] (ZEAMA Sileno [2]; HER 2 g a.i./ha, cyprosulfamide 50 g a.i./ha, damage without safener - damage with safener): 30; Reduction [%] (ZEAMA Sileno [2]; [5]): 53%; Reduction [Difference] (ZEAMA Sileno [2]; [5]): 50; HER effect + SAF (ZEAMA Sileno [2]; [6]): 15%; HER effect (ZEAMA Sileno [2]; HER dose 2 g a.i./ha, 0% = no injury, 100% = complete kill): 45%; HER effect + SAF (ZEAMA Sileno [2]; [7]): 45%; HER effect (ZEAMA Sileno [2]; HER dose 8 g a.i./ha): 95%; Reduction [%] (ZEAMA Sileno [3]; HER dose 2 g a.i./ha): 100%; Reduction [Difference] (ZEAMA Sileno [3]; HER dose 2 g a.i./ha): 45; HER effect + SAF (crop damage with safener) (ZEAMA Sileno [3]; HER dose 2 g a.i./ha): 0%; HER effect (crop damage, herbicide without safener) (ZEAMA Sileno [3]; HER dose 2 g a.i./ha): 45%"
CN(C)C(=O)SCCOC(=O)C1C=CC(NC(=O)C2(C)CC(c3cc(F)cc(F)c3)=NO2)C1 (stereo not drawn) [Example 1.29],67,40,73,55,100,60,0,60,93,70,5,75,–,–,–,–,–,–,–,–,HER effect + SAF (ZEAMA Sileno [1]; HER dose 8 g a.i./ha): 20%; HER effect (ZEAMA Sileno [1]; HER dose 8 g a.i./ha): 60%; HER effect + SAF (ZEAMA Sileno [1]; HER dose 32 g a.i./ha): 20%; HER effect (ZEAMA Sileno [1]; HER dose 32 g a.i./ha): 75%; Reduction [%] (ZEAMA Sileno [2]; [5]): 67%; Reduction [Difference] (ZEAMA Sileno [2]; [5]): 40; Reduction [%] (ZEAMA Sileno [2]; [8]): 60%; Reduction [Difference] (ZEAMA Sileno [2]; [8]): 45; HER effect + SAF (ZEAMA Sileno [2]; [7]): 20%; HER effect (ZEAMA Sileno [2]; HER dose 8 g a.i./ha): 60%; HER effect + SAF (ZEAMA Sileno [2]; [9]): 30%; HER effect (ZEAMA Sileno [2]; HER dose 32 g a.i./ha): 75%
C=CC1(C(=O)NC2COC(C(=O)OC)C2)CC(c2cc(C)cc(F)c2)=NO1 (mixture of isomers) [Example 1.71],–,–,–,–,–,–,–,–,91,29,3,32,71,41,67,61,17,58,30,91,–
C=CC1(C(=O)NC2C=C(C(=O)OCCOC)OC2)CC(c2cc(C)cc(F)c2)=NO1 (stereo not drawn) [Example 1.89],–,–,–,–,–,–,–,–,88,22,3,25,100,30,67,30,0,30,15,45,–
C=CC1(C(=O)NC2C=C(C(=O)OC)OC2)CC(c2cc(C)cc(C)c2)=NO1 (stereo not drawn) [Example 1.90],–,–,–,–,73,61,22,83,68,64,30,94,–,–,–,–,–,–,–,–,Reduction [%] (ZEAMA Abraxas; [4]): 88%; Reduction [Difference] (ZEAMA Abraxas; [4]): 22; HER effect + SAF (ZEAMA Abraxas; [6]): 3%; HER effect (ZEAMA Abraxas; HER dose 2 g a.i./ha): 25%
CC1(C(=O)NC2COC(C(=O)OCc3cccc(F)c3)C2)CC(c2cc(F)cc(F)c2)=NO1 (mixture of isomers) [Example 1.76],–,–,–,–,100,22,0,22,74,20,7,27,74,67,26,25,23,90,70,95,–
